Consider one compound from patent US20250381249A1, “COMBINATION TREATMENT FOR RESISTANT HYPERTENSION” (Mayo Foundation for Medical Education and Research, priority 2018, published 2025).

Format in all cases: in vivo, rat
Data set [1] has as its system SHR. Description: Acute study in SHR, renal function (GFR, urinary sodium and water excretion). The note with it: Fs groups, 60 minutes, inulin clearance. As for the experimental part:
Acute Study Protocol in SHR: The cardiorenal and neurohumoral actions of MANP, Fs, or their combination were investigated in the genetic model of hypertension in male SHR (n=6 in each group). Rats were anesthetized in an induction chamber with inhaled Isoflurane 2.5%. During this brief state of anesthesia, the rats were administered IP Inactin 100 mg/kg to maintain anesthesia. An oxygen mask was used until the end of the experiment. The carotid artery was cannulated for arterial pressure measurements and the right jugular vein was cannulated for infusions. Pressures were recorded and analyzed digitally (Sonometrics, London, Ontario, Canada). […]
Neurohormonal and Electrolyte Analysis: Plasma ANP was measured by radioimmunoassay (Phoenix Pharmaceuticals) as an assessment of MANP, as the ANP RIA fully detects MANP (Burnett et al. (1986) Science 231(4742):1145-1147). Plasma and urinary cGMP (Enzo Life Sciences) and aldosterone (DRG International, Springfield, NJ) were determined by ELISA. Inulin concentrations were measured using the anthrone method, as described elsewhere (Fuhr et al. (1955) Klin. Wochenschr 33:729-730). GFR was calculated by inulin clearance. Electrolytes were measured by flame photometry (IL943, Instrumentation Laboratory, UK). […]
(§1) Statistical Analysis: Values are expressed as mean±standard error of mean (SEM). […]

Data set [2] has as its system SHR. Description: Acute study in SHR, neurohumoral analysis (plasma and urinary cGMP, aldosterone). As to conditions: Fs5 and Fs10, 60 minutes. As for the experimental part:
Rats were anesthetized in an induction chamber with inhaled Isoflurane 2.5%. During this brief state of anesthesia, the rats were administered IP Inactin 100 mg/kg to maintain anesthesia. An oxygen mask was used until the end of the experiment. The carotid artery was cannulated for arterial pressure measurements and the right jugular vein was cannulated for infusions. Pressures were recorded and analyzed digitally (Sonometrics, London, Ontario, Canada). Via a small incision in the lower abdominal wall, the bladder was cannulated for urine sampling. Immediately after preparation, a 30-minute equilibration period was started with intravenous inulin infusion. […] Plasma and urinary cGMP (Enzo Life Sciences) and aldosterone (DRG International, Springfield, NJ) were determined by ELISA. Inulin concentrations were measured using the anthrone method, as described elsewhere (Fuhr et al. (1955) Klin. Wochenschr 33:729-730). GFR was calculated by inulin clearance. Electrolytes were measured by flame photometry (IL943, Instrumentation Laboratory, UK). All measurements were performed according to manufacturer instructions.

Data set [3] has as its system spontaneously hypertensive rats (SHR). Put plainly: Individual and combined effects of MANP and Fs on BP and aldosterone in spontaneously hypertensive rats (Example 1). The note with it: for Mean arterial pressure (MAP) Δ: 60 minute period, mean±SD.
In data set [4] the test system is SHR. Description: Acute study in SHR, systemic hemodynamics (arterial BP). As to conditions: all three doses of Fs (1, 5, 10 mg/kg IV bolus). How it is done: Acute Study Protocol in SHR: The cardiorenal and neurohumoral actions of MANP, Fs, or their combination were investigated in the genetic model of hypertension in male SHR (n=6 in each group). Rats were anesthetized in an induction chamber with inhaled Isoflurane 2.5%. During this brief state of anesthesia, the rats were administered IP Inactin 100 mg/kg to maintain anesthesia. An oxygen mask was used until the end of the experiment. The carotid artery was cannulated for arterial pressure measurements and the right jugular vein was cannulated for infusions. Pressures were recorded and analyzed digitally (Sonometrics, London, Ontario, Canada). Via a small incision in the lower abdominal wall, the bladder was cannulated for urine sampling.
Immediately after preparation, a 30-minute equilibration period was started with intravenous inulin infusion. […] After baseline measurements, rats were randomly assigned to ten groups: • Group 1—treated with MANP100; • Group 2—treated with MANP300; • Group 3—treated with MANP600; • Group 4—treated with Fs1; • Group 5—treated with Fs5; • Group 6—treated with Fs10; • Group 7—treated with MANP300+Fs5; • Group 8—treated with MANP300+Fs10; • Group 9—treated with MANP600+Fs10; and • Group 10—treated with inulin, normal saline, or inulin and normal saline. […]
as §1

Consider `NS(=O)(=O)c1cc(C(=O)O)c(NCc2ccco2)cc1Cl` [Fs, furosemide], for which the “GFR compared to the no treatment control groups” value in data set [1] is recorded as “significantly lower”. The “levels of aldosterone compared to the control, MANP100 and MANP300 groups” value in data set [2] is “significantly higher”. The results for the “Mean arterial pressure (MAP) Δ” value in data set [3] (Fs1: 1 mg/kg Fs single bolus), in data set [3] (Fs5: 5 mg/kg Fs single bolus) and in data set [3] (Fs10: 10 mg/kg Fs single bolus) were −40±9 mmHg, −55±8 mmHg and −63±11 mmHg, respectively. The urinary flow entry in data set [3] (Fs, MANP and Fs+MANP groups, p<0.05) is listed as “enhanced”. Further, the “BP compared with controls” value in data set [4] is given as “significantly reduced”.
